Laboratory results published in US9284366B2, “Anti-acetylated huntingtin antibodies and uses therof” (The General Hospital Corporation, priority 2006, dated 2016).

Key:
[1] = test system: total Htt and acetyl-Htt level in Neuro2a cells; test: Proteasome and autophagy inhibitors in Neuro2a cells transfected with Htt590-97Q (western blot); assay type: cell-based; conditions: lactacystin 10 μM or 3-methyladenine 10 mM for 12 hrs
Protocol: Cell Culture and Transfection. Neuro2a, STHdh^Q7/Q7, and COS-7 cells were transfected using Lipofectamine 2000. For HDAC inhibition, TSA (1 μM) and NAM (5 mM) were applied 6 hrs and 16 hrs, respectively, prior to harvest. Unless indicated otherwise, cells were harvested 24 hrs after transfection. For the experiments with proteasome and autophagy inhibitors, Neuro2a cells were treated with lactacystin (10 μM) or 3-methyladenine (10 mM) for 12 hrs. For assessment of LC3 conversion, immortalized striatal cells (STHdh^Q7/Q7) were cultured as described (29), transfected for 48 hrs and treated with TSA (4 μM) and NAM (5 mM) 15 hrs prior to harvest.
To examine which of these pathways may be responsible for clearance of acetylated Htt polypeptide, Neuro2a cells were transfected with Htt590-97Q and treated with inhibitors of proteasome or autophagy. […] In order to further examine whether acetylated Htt polypeptide leads to activation of macroautophagy, LC3 conversion was assessed (17, 18). LC3, a mammalian homologue of yeast Atg8, is a diffusely distributed protein that upon activation by mammalian Atg7 undergoes posttranslational modification resulting in the product LC3-II, which firmly associates with the autophagosomal membrane. The amount of LC3-II, which migrates faster than LC3-I on SDS-PAGE, provides a reliable measure of autophagic activity (17). In order to assess autophagic activity in relation to Htt acetylation, immortalized striatal cells (STHdh^Q7/Q7) were transfected with Htt590-97Q or acetylation-resistant Htt590-97Q-KR, treated with TSA and NAM and analyzed by western blotting with anti-LC3 antibody (FIG. 3B).

Drosophila model of HD = conditions: pharmacological inhibition of HDAC; cited from earlier work
C. elegans neurons = conditions: dose-dependent manner; cited from earlier work

Cn1cnc(N)c2ncnc1-2 [3-methyladenine]
acetyl-Htt level [1]: accumulation

O=C(CCCCCCC(=O)Nc1ccccc1)NO [SAHA, Suberoylanilide hydroxamic acid]
lethality and degeneration in Drosophila model of HD (Drosophila model of HD): rescue the lethality and degeneration

CC(/C=C/C(=O)NO)=C\[C@@H](C)C(=O)c1ccc(N(C)C)cc1 [TSA, trichostatin A]
degeneration of C. elegans neurons induced by mutant Htt (C. elegans neurons): reduced the degeneration

CC(=O)N[C@@H](CSC(=O)[C@]1([C@@H](O)C(C)C)NC(=O)[C@H](C)[C@@H]1O)C(=O)O [lactacystin]
acetyl-Htt level [1]: no significant effect | total Htt level [1]: no significant effect
